Experimental data taken from paper PMC4501319, “Discovery of Selective Small-Molecule Activators of a Bacterial Glycoside Hydrolase” (Angewandte Chemie (International Ed. in English), 2014).
“And” between values parts separate entries of the source, which are not always exact repeats. Equal values may be shown once.

Legend:
[1] = target: T1, BtGH84 (Bacteroides thetaiotaomicron, UniProt Q89ZI2); test: 4MU-GlcNAc cleavage assay (fluorescent kinetic enzyme activity assay); assay type: biochemical; details: for Vmax(app): Michaelis–Menten fit, 1 % DMSO, substrate 50 μM to 2 mM, activator concentration 2 mM; for Kd: affinity of activator to the substrate-bound enzyme, read-out: αKA; for Vmax / α / β: non-essential activator equation fit to covariation experiments; for Vmax: activator 50 µM to 2 mM; for α: modifies KM; for β: modifies Vmax/kcat; for Emax: read-out: Maximum activation
T1 construct: made in house
Protocol: AC50 measurements of fragment activators were performed using a fluorescent kinetic assay. Assays were carried out in a 96 well plate (Black Nunc F96 MicroWell Plates) at 25°C in a total volume of 100 μl per well, buffer (50 mM MES pH 6.5, 200 mM NaCl, 0.01% Tween-20, 1% DMSO) with 500 μM 4-methylumbelliferyl-β-D-GlcNAc (4MU-GlcNAc), as substrate and 50 nM BtGH84. Reactions were initiated by addition of 10 μl of substrate, to a final concentration of 500 μM, followed by 5 s of shaking. Fluorescent 4-methylumbelliferyl release was recorded continuously at 355 nm excitation and 460 nm emission for 20 s using a BMG PolarStar Optima plate reader. Rates were calculated using Sigmaplot as the slope of the curve of the collected data. Corrections were made to the detected gradients to adjust for the inner filter effect of 4MU-GlcNAc and convert the gradients into units of μmol min-1 according to a standard curve of 4MU. […]
Kinetic experiments using 4MU-GlcNAc were carried out in an analogous manner except that reactions were initiated by a 10 μl injection of BtGH84, to a final concentration of 50 nM, in a well containing the substrate at the desired concentration. Values quoted throughout are mean and standard deviation of three independent […]
Apparent KM and Vmax values were calculated from a Michalis-Menten curve fit to 8-10 point substrate titrations at a constant concentration of the activator. The covariation experiments used the same range of substrate concentrations across an activator concentration range of 50 µM to 2 mM. The data obtained from these experiments was fit to the nonessential activator equation: […]
Here, [S] is the concentration of the […], [A] the concentration of the activator, α modifies KM, β modifies Vmax and KA is the half-max concentration of the activator. […]

[2] = target: T1, BtGH84; test: STD NMR competition between activators; assay type: binding; details: in the presence of 2 (25 mM) as competitor
Protocol: (§1) Compounds in the fragment library were purchased from Specs, additional structural neighbours were purchased from Specs and Enamine. O-(2-Acetamido-2-deoxy-D-glucopyranosylidene) amino-Z-N-phenylcarbamate (PUGNAc) was purchased from Tocris Bioscience.
(§2) The fragment library was assembled as described by Schulz et al.[1] and dissolved in DMSO-d6 to a concentration of 200 mM and quality controlled using 1H NMR spectroscopy. Instant JChem 5.3.8, 2010, ChemAxon (http://www.chemaxon.com), was used for structure database management.
(§3) NMR spectroscopy and fragment screening
(§4) NMR experiments were carried out on a Bruker Avance II 700 MHz NMR spectrometer equipped with a triple resonance probe and z axis gradients. Data were processed using Topspin 3.2 software. Three NMR experiments were used for the screening, STD NMR,[2] PO-WaterLOGSY,[3] and T1ρ-filtered[4] 1H NMR experiments. All NMR screening data were collected at 288K and the samples contained 20 μM BtGH84, fragments at a concentration of approximately 200 μM per compound and 20 μM of TSP in 25 mM phosphate buffer containing 150 mM NaCl and 10% D2O at pH 7.4. […] The experiments were recorded using the standard STD NMR pulse sequence with a 15 ms 6 kHz spin-lock pulse to reduce the background protein resonances and excitation sculpting to suppress the water resonance. […]

[3] = Aqueous solubility; assay type: physicochemical
[4] = tested on: β-N-Acetylglucosaminidase from Canavalia ensiformis (Jack bean); test: 4MU-GlcNAc substrate titration with commercially available β-N-acetylglucosaminidase; assay type: biochemical; details: 4MU-GlcNAc substrate titration at pH 4.9 and pH 6.5
Description: Figure S8: Effect of activators 2 and 4 on a β-N-Acetylglucosaminidase from Canavalia ensiformis (Jack
(B) titration at the same pH as used for the BtGH84 studies (pH 6.5).
Enzyme supplied by Sigma (purified from native source).
(1 picture or pasted object on this page, not shown here)

[5] = target: T1, BtGH84; test: Affinity by NMR spectroscopy using proton relaxation rates R2; assay type: binding
Protocol: as §1, §2, §3
as §4, with “experiments.” for “experiments. All NMR screening data were collected at 288K and the samples contained 20 μM BtGH84, fragments at a concentration of approximately 200 μM per compound and 20 μM of TSP in 25 mM phosphate buffer containing 150 mM NaCl and 10% D2O at pH 7.4.”
Figure S3. Dissociation constant of 2 for BtGH84 determined in the presence of PUGNAc with 1H R2 relaxation rates. […]

[6] = titration of activator from 50 μM to 2 mM, substrate concentration 500 μM

T1 sequence (Q89ZI2 22-737, change not shown): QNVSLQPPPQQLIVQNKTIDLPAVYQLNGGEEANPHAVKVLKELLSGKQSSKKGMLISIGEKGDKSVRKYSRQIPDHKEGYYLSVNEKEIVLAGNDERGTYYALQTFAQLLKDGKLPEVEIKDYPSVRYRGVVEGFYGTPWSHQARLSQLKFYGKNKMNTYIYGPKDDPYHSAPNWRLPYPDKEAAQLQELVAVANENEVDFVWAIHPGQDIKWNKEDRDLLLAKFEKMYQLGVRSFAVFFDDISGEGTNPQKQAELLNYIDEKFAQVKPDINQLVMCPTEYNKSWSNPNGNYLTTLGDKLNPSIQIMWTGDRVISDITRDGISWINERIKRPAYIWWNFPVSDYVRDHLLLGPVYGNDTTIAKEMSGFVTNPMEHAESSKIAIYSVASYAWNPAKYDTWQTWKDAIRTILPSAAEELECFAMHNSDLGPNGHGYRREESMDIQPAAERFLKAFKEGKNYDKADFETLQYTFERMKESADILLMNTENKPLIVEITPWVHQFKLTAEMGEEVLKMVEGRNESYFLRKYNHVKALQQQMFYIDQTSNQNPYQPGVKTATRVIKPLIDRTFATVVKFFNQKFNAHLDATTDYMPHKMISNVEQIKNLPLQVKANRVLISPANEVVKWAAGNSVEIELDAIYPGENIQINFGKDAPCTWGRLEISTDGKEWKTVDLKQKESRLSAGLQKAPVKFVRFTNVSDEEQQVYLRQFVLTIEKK

SMILES	Vmax(app) [1] [µmol/min]	Kd ([1]; covariation experiments)	βkcat ([1]; covariation experiments) [s⁻¹]	Vmax [1] [µmol/min]	α [1]	β [1]	AC50 [1, 6] [µM]	Emax [1, 6] [%]	saturation transfer (STD NMR signal) from BtGH84 to activator [2]	aqueous solubility ([3]; compared to the original activator 2)	highest concentration attainable at 1% DMSO ([3]; enzyme assay buffer, 1% DMSO) [mM]	enhancement of substrate binding in the presence of the activator ([1]; from α, covariation experiments) [fold]	increase of kcat in the presence of the activator ([1]; from β, covariation experiments) [fold]	activation of β-N-acetylglucosaminidase [4]	AC50 ([1]; activation, 4MU-GlcNAc substrate concentration 500 μM)	affinity for BtGH84 ([5]; in the absence of PUGNAc, compared with presence of PUGNAc)	Kd ([5]; in the presence of PUGNAc (200 μM), 8 μM BtGH84, 298 K) [µM]
CCc1cc2c(N3CCOCC3)ncnc2s1 [Compound 5]	0.024 ± 0.001	~200 µM and 205 µM	75.8	0.018 ± 0.0008	0.17 ± 0.02	1.3 ± 0.07	274 ± 12	329	clear loss in signal intensity	–	–	–	–	–	–	–	–
CCOc1ncnc2sc(C)c(C)c12 [Compound 3]	0.022 ± 0.001	1090 µM	88.7	0.019 ± 0.0007	0.061 ± 0.04	1.4 ± 0.1	575 ± 78	284	–	poor	2	–	–	–	–	–	–
Cc1sc2ncnc(N3CCOCC3)c2c1C [Compound 4]	0.026 ± 0.002	~200 µM and 224 µM	100	0.018 ± 0.002	0.14 and 0.14 ± 0.02	1.7 and 1.7 ± 0.1	259 ± 24	371	significantly diminished	–	–	~7	1.7	do not increase the activity	–	–	–
CCOc1ncnc2ccccc12 [Compound 2, 4-ethoxyquinazoline]	–	–	–	–	–	–	–	–	–	–	–	–	–	do not increase the activity	3500 µM and ~3500 µM	weaker	3100 ± 700
c1nc(N2CCOCC2)c2ccsc2n1 [Compound 6]	0.015 ± 0.002	–	–	–	–	–	702 ± 85	234	–	–	–	–	–	–	–	–	–
